Source: US12559681B2, “Solubilizing agent and solubilizing solution” (NOF CORPORATION, priority 2020, dated 2026)

Tests used:
[1] = Solubility of the hardly water-soluble substance in PBS (statement); conditions: PBS without solubilizing agent
[2] = Solubilization test of cholecalciferol (vitamin D3): turbidity (absorbance at 450 nm) of a mixture of solubilizing solution and cholecalciferol solution; format: physicochemical; conditions: for turbidity: 100 μL + 1 μL cholecalciferol 20 mg/mL in ethanol, absorbance 450 nm minus PBS alone; for turbidity ratio to PBS: cholecalciferol, less than 10% = dissolved
Protocol: Cholecalciferol (vitamin D3) was dissolved in ethanol at a concentration of 20 mg/mL to prepare a cholecalciferol solution. […] The cholecalciferol solution was dispensed at 1 uL/well. The mixture in each well was stirred for 1 min, and the absorbance of the mixture at a wavelength of 450 nm was measured. In addition, the absorbance of PBS alone not containing cholecalciferol at a wavelength of 450 nm was measured. The difference between the absorbance of the mixture of the solubilizing solution and the cholecalciferol solution at a wavelength of 450 nm and the absorbance of PBS alone at a wavelength of 450 nm was taken as “turbidity of a mixture of a solubilizing solution and a cholecalciferol solution”. A smaller turbidity indicates a larger amount of a hardly water-soluble substance dissolved therein.
In the same manner as in the above except that PBS was used instead of the solubilizing solution, “turbidity of a mixture of PBS and a cholecalciferol solution” (that is, difference between the absorbance of a mixture of PBS and a cholecalciferol solution at a wavelength of 450 nm and the absorbance of PBS alone at a wavelength of 450 nm) was calculated.
(§1) As an index for evaluation of whether or not cholecalciferol is dissolved, turbidity ratio to PBS was calculated by the following formula: • turbidity ratio to PBS (%)=100×(turbidity of a mixture of solubilizing solution and cholecalciferol solution)/(turbidity of a mixture of PBS and cholecalciferol solution). When the turbidity ratio to PBS was less than 10%, cholecalciferol was evaluated to have been dissolved.

[3] = Solubilization test of DL-α-tocopherol (vitamin E): turbidity at 450 nm; format: physicochemical; conditions: for turbidity: DL-α-tocopherol 20 mg/mL in ethanol, 1 μL/well, absorbance 450 nm minus PBS alone; for turbidity ratio to PBS: DL-α-tocopherol, less than 10% = dissolved
Protocol: DL-α-tocopherol (vitamin E) was dissolved in ethanol at a concentration of 20 mg/mL to prepare a DL-α-tocopherol solution.
In the same manner as above except that PBS was used instead of the solubilizing solution, “turbidity of a mixture of PBS and a DL-α-tocopherol solution” (that is, difference between the absorbance of a mixture of PBS and a DL-α-tocopherol solution at a wavelength of 450 nm and the absorbance of PBS alone at a wavelength of 450 nm) was calculated.
As an index for evaluation of whether or not DL-α-tocopherol is dissolved, turbidity ratio to PBS was calculated by the following formula: turbidity ratio to PBS (%)=100×(turbidity of a mixture of solubilizing solution and DL-α-tocopherol solution)/(turbidity of a mixture of PBS and DL-x-tocopherol solution). When the turbidity ratio to PBS was less than 10%, DL-α-tocopherol was evaluated to have been dissolved.

[4] = Solubilization test of lauric acid: turbidity at 450 nm; format: physicochemical; conditions: for turbidity: solubilizing agent 5.000% by mass in PBS, lauric acid 100 mg/mL in ethanol, 3 μL/well, absorbance 450 nm minus PBS alone; for turbidity ratio to PBS: solubilizing agent 5.000% by mass, lauric acid, less than 10% = dissolved
Protocol: Lauric acid was dissolved in ethanol at a concentration of 100 mg/mL to prepare a lauric acid solution.
In the same manner as above except that PBS was used instead of the solubilizing solution, “turbidity of a mixture of PBS and a lauric acid solution” (that is, difference between the absorbance of a mixture of PBS and a lauric acid solution at a wavelength of 450 nm and the absorbance of PBS alone at a wavelength of 450 nm) was calculated.
as §1, with “lauric acid” for “cholecalciferol”

[5] = Solubilization test of myristic acid: turbidity at 450 nm; format: physicochemical; conditions: for turbidity: solubilizing agent 5.000% by mass in PBS, myristic acid 100 mg/mL in ethanol, 3 μL/well, absorbance 450 nm minus PBS alone; for turbidity ratio to PBS: solubilizing agent 5.000% by mass, myristic acid, less than 10% = dissolved
Protocol: Myristic acid was dissolved in ethanol at a concentration of 100 mg/mL to prepare a myristic acid solution.
In the same manner as above except that PBS was used instead of the solubilizing solution, “turbidity of a mixture of PBS and a myristic acid solution” (that is, difference between the absorbance of a mixture of PBS and a myristic acid solution at a wavelength of 450 nm and the absorbance of PBS alone at a wavelength of 450 nm) was calculated.
as §1, with “myristic acid” for “cholecalciferol”

[6] = Solubilization test of hydrocortisone: turbidity at 450 nm; format: physicochemical; conditions: for turbidity: solubilizing agent 0.050% by mass in PBS, hydrocortisone 20 mg/mL in ethanol, 125 μL/well, absorbance 450 nm minus PBS alone; for turbidity ratio to PBS: solubilizing agent 0.050% by mass, hydrocortisone, less than 10% = dissolved
Protocol: Hydrocortisone was dissolved in ethanol at a concentration of 20 mg/mL to prepare a hydrocortisone solution.
In the same manner as above except that PBS was used instead of the solubilizing solution, “turbidity of a mixture of PBS and a hydrocortisone solution” (that is, difference between the absorbance of a mixture of PBS and a hydrocortisone solution at a wavelength of 450 nm and the absorbance of PBS alone at a wavelength of 450 nm) was measured.

[7] = solubilizing agent 0.025% by mass in PBS
[8] = solubilizing agent 0.025% by mass
[9] = solubilizing agent 0.050% by mass in PBS
[10] = solubilizing agent 0.050% by mass

solubility in PBS [1]	Compound	turbidity [2, 7]	turbidity ratio to PBS [2, 8] [%]	turbidity [2, 9]	turbidity ratio to PBS [2, 10] [%]	turbidity [3, 9]	turbidity ratio to PBS [3, 10] [%]	also measured
insoluble	CCCCCCCCCCCC(=O)O [Lauric acid]							
insoluble	CCCCCCCCCCCCCC(=O)O [Myristic acid]							

Further lines, the compound ahead of its results:

Compound	solubility in PBS [1]	turbidity [2, 7]	turbidity ratio to PBS [2, 8] [%]	turbidity [2, 9]	turbidity ratio to PBS [2, 10] [%]	turbidity [3, 9]	turbidity ratio to PBS [3, 10] [%]	also measured
Cc1c(C)c2c(c(C)c1O)CCC(C)(CCCC(C)CCCC(C)CCCC(C)C)O2 (racemic) [DL-α-tocopherol, reference compound]	insoluble							
CCCCCCCCSCC(C)C(=O)OCCOP(=O)([O-])OCC[N+](C)(C)C (centres unmarked) [Synthetic Example 1, 2-[3-(octylsulfanyl)-2-methylpropionyloxy]ethyl-2-(trimethylammonio)ethyl phosphate]		0.0229	9	0.0132	5	0.0000	0	turbidity [3, 7]: 0.0150; turbidity ratio to PBS [3, 8]: 9%; turbidity [4]: 0.0000; turbidity ratio to PBS [4]: 0%; turbidity ratio to PBS ([4]; listed as Example 4-1): less than 10%; turbidity [5]: 0.0231; turbidity ratio to PBS [5]: 5%; turbidity ratio to PBS ([5]; listed as Example 5-1): less than 10%
CCCCCCCCCCCCSCC(C)C(=O)OCCOP(=O)([O-])OCC[N+](C)(C)C (centres unmarked) [Synthetic Example 2, 2-[3-(dodecylsulfanyl)-2-methylpropionyloxy]ethyl-2-(trimethylammonio)ethyl phosphate]		0.0080	3	0.0009	0	0.0153	9	
CCCCCCCCCCCCCCCCSCC(C)C(=O)OCCOP(=O)([O-])OCC[N+](C)(C)C (centres unmarked) [Synthetic Example 3, 2-[3-(hexadecylsulfanyl)-2-methylpropionyloxy]ethyl-2-(trimethylammonio)ethyl phosphate]		0.0231	9	0.0139	6			turbidity [6]: 0.0015; turbidity ratio to PBS [6]: 3%; turbidity ratio to PBS ([6]; listed as Example 3-3): less than 10%
Triton X-100 [reference compound]				0.0331	13	0.2573	147	turbidity ratio to PBS ([3]; solubilizing agent 0.050% by mass, listed as Comparative Example 2-2-1): not less than 10%; turbidity [6]: 0.0910; turbidity ratio to PBS [6]: 205%; turbidity [4]: 0.0002; turbidity ratio to PBS [4]: 0%; turbidity [5]: 0.0601; turbidity ratio to PBS [5]: 14%
